Assay results published in ChEMBL document CHEMBL1132068, “A new class of anti-HIV agents: synthesis and activity of conjugates of HIV protease inhibitors with a reverse transcriptase inhibitor” (Bioorg Med Chem Lett, 1999).

Key:
[1] = tested on: CEM-SS; assay: Inhibitory activity against HIV-1 IIIB in CEM-SS infected cells; format: functional, cell-based; settings: Homo sapiens
[2] = biological target: Human immunodeficiency virus type 1 protease (Human immunodeficiency virus 1) (UniProt Q72874); assay: Inhibitory activity against HIV protease at a concentration of 5 uM
[3] = tested on: CEM-SS; assay: Inhibitory activity against HIV-1 IIIB in CEM-SS infected cells relative to AZT; format: functional, Homo sapiens
[4] = tested on: MT4; assay: Inhibitory activity against HIV-1 IIIB in MT-4 infected cells; format: functional, cell-based; settings: Homo sapiens
[5] = biological target: Human immunodeficiency virus type 1 protease (Human immunodeficiency virus 1) (UniProt Q72874); assay: Inhibitory activity against HIV protease at a concentration of 50 uM
[6] = tested on: CEM-SS; assay: Inhibitory activity against HIV-1 IIIB in CEM-SS infected cells; In active; format: functional, cell-based, Homo sapiens
[7] = tested on: CEM-SS; assay: Inhibitory activity against HIV-1 IIIB in CEM-SS infected cells (Experiment 2); format: functional, cell-based; settings: Homo sapiens

| SMILES | EC50 [1] [µM] | inhibition [2] [%] | inhibition [5] [%] | EC50 [6] | EC50 [7] [µM] | Relative Potency [3] | EC50 [4] [µM] |
| --- | --- | --- | --- | --- | --- | --- | --- |
| Cc1ccccc1CNC(=O)[C@@H]1CSCN1C(=O)[C@@H](O)[C@H](Cc1ccccc1)NC(=O)CC(C)(C)C(=O)OCC1OC(n2cc(C)c(=O)[nH]c2=O)CC1N=[N+]=[N-] (stereo partly drawn) | 0.0038 | 11 | – | – | – | 2.9 | – |
| CC(C)(C)NC(=O)[C@@H]1CSCN1C(=O)[C@@H](O)[C@H](Cc1ccccc1)NC(=O)CC(C)(C)C(=O)O | – | 93 | 20 | – | – | – | > 2000 |
| Cc1ccccc1CNC(=O)[C@H]1N(C(=O)[C@@H](O)[C@H](Cc2ccccc2)NC(=O)CC(C)(C)C(=O)OCC2OC(n3cc(C)c(=O)[nH]c3=O)CC2N=[N+]=[N-])CSC1(C)C (stereo partly drawn) | 0.00024 | 83 | – | – | – | 46 | – |
| Cc1ccccc1CNC(=O)[C@@H]1CSCN1C(=O)[C@@H](O)[C@H](Cc1ccccc1)NC(=O)C(C)C(C)C(=O)O (stereo partly drawn) | – | 88 | – | – | – | – | – |
| Cc1ccccc1CNC(=O)[C@@H]1CSCN1C(=O)[C@@H](O)[C@H](Cc1ccccc1)NC(=O)CC(C)(C)C(=O)O | – | 87 | – | – | – | – | – |
| Cc1ccccc1CNC(=O)[C@H]1N(C(=O)[C@@H](O)[C@H](Cc2ccccc2)NC(=O)CC(C)(C)C(=O)O)CSC1(C)C | – | 100 | 78 | Not Active | – | – | – |
| CC(C)(C)NC(=O)[C@H]1N(C(=O)[C@@H](O)[C@H](Cc2ccccc2)NC(=O)CC(C)(C)C(=O)O)CSC1(C)C | – | 99 | 76 | – | – | – | 52 |
| Cc1ccccc1CNC(=O)[C@H]1N(C(=O)[C@@H](O)[C@H](Cc2ccccc2)NC(=O)C(C)C(C)C(=O)OCC2OC(n3cc(C)c(=O)[nH]c3=O)CC2N=[N+]=[N-])CSC1(C)C (stereo partly drawn) | 0.0073 | 96 | 39 | – | – | 1.5 | – |
| Cc1cn([C@H]2C[C@H](N=[N+]=[N-])[C@@H](CO)O2)c(=O)[nH]c1=O [ZIDOVUDINE] | – | – | – | – | 0.011 | 1 | – |
| Cc1cn(C2CC(N=[N+]=[N-])C(COC(=O)CCC(=O)N[C@@H](Cc3ccccc3)[C@H](O)C(=O)N3CSC[C@H]3C(=O)NC(C)(C)C)O2)c(=O)[nH]c1=O (stereo partly drawn) | 0.042 | 14 | – | – | – | 3 | – |
| CSC[C@H](NC(=O)COc1cccc2cnccc12)C(=O)N[C@@H](Cc1ccccc1)[C@H](O)C(=O)N1CSC[C@H]1C(=O)NC(C)(C)C | 0.04 | 100 | – | – | – | – | 0.00057 |
| Cc1cn(C2CC(N=[N+]=[N-])C(COC(=O)C(C)C(C)C(=O)N[C@@H](Cc3ccccc3)[C@H](O)C(=O)N3CSC(C)(C)[C@H]3C(=O)NC(C)(C)C)O2)c(=O)[nH]c1=O (stereo partly drawn) | 0.09 | 69 | – | – | – | 1.4 | – |

Further lines, with some results ahead:

| EC50 [1] [µM] | inhibition [2] [%] | inhibition [5] [%] | EC50 [6] | EC50 [7] [µM] | SMILES | Relative Potency [3] | EC50 [4] [µM] |
| --- | --- | --- | --- | --- | --- | --- | --- |
| – | 74 | – | – | – | CC(C)(C)NC(=O)[C@@H]1CSCN1C(=O)[C@@H](O)[C@H](Cc1ccccc1)NC(=O)CCC(=O)O | – | – |
| – | 97 | 32 | – | – | CC(C(=O)O)C(C)C(=O)N[C@@H](Cc1ccccc1)[C@H](O)C(=O)N1CSC[C@H]1C(=O)NC(C)(C)C (stereo partly drawn) | – | > 2000 |
| 0.027 | 9 | – | – | – | Cc1cn(C2CC(N=[N+]=[N-])C(COC(=O)C(C)(C)CC(=O)N[C@@H](Cc3ccccc3)[C@H](O)C(=O)N3CSC[C@H]3C(=O)NC(C)(C)C)O2)c(=O)[nH]c1=O (stereo partly drawn) | 4.7 | – |
| – | 100 | 76 | – | – | Cc1ccccc1CNC(=O)[C@H]1N(C(=O)[C@@H](O)[C@H](Cc2ccccc2)NC(=O)C(C)C(C)C(=O)O)CSC1(C)C (stereo partly drawn) | – | – |
| 0.0089 | 57 | – | – | – | Cc1ccccc1CNC(=O)[C@@H]1CSCN1C(=O)[C@@H](O)[C@H](Cc1ccccc1)NC(=O)C(C)C(C)C(=O)OCC1OC(n2cc(C)c(=O)[nH]c2=O)CC1N=[N+]=[N-] (stereo partly drawn) | 1.2 | – |
| 0.027 | 29 | – | – | – | Cc1cn(C2CC(N=[N+]=[N-])C(COC(=O)C(C)C(C)C(=O)N[C@@H](Cc3ccccc3)[C@H](O)C(=O)N3CSC[C@H]3C(=O)NC(C)(C)C)O2)c(=O)[nH]c1=O (stereo partly drawn) | 4.7 | – |
| 0.019 | 41 | – | – | – | Cc1cn(C2CC(N=[N+]=[N-])C(COC(=O)C(C)(C)CC(=O)N[C@@H](Cc3ccccc3)[C@H](O)C(=O)N3CSC(C)(C)[C@H]3C(=O)NC(C)(C)C)O2)c(=O)[nH]c1=O (stereo partly drawn) | 6.6 | – |
| – | 99 | 78 | – | – | CC(C(=O)O)C(C)C(=O)N[C@@H](Cc1ccccc1)[C@H](O)C(=O)N1CSC(C)(C)[C@H]1C(=O)NC(C)(C)C (stereo partly drawn) | – | 225 |
